Results published in US20140024527A1, “HERBICIDAL PYRAZINONES” (E I DU DE NEMOURS AND COMPANY, priority 2011, published 2014).

What was measured:
Type in all cases: in vivo
[1] = system: barnyardgrass (Echinochloa crus-galli); assay: Test A postemergence; details: 0 to 100 scale, 0 no effect, 100 complete control, approx. 10 days
Excerpt: (§1) Seeds of barnyardgrass (Echinochloa crus-galli), large crabgrass (Digitaria sanguinalis), giant foxtail (Setaria faberii), morningglory (Ipomoea spp.), pigweed (Amaranthus retroflexus), velvetleaf (Abutilon theophrasti), wheat (Triticum aestivum) and corn (Zea mays) were planted into a blend of loam soil and sand and treated preemergence with a directed soil spray using test chemicals formulated in a non-phytotoxic solvent mixture which included a surfactant. At the same time these species were also treated with postemergence applications of test compounds formulated in the same manner. Plants ranged in height from 2 to 10 cm and were in the one- to two-leaf stage for the postemergence treatments. Treated plants and untreated controls were maintained in a greenhouse for approximately 10 days, after which time all treated plants were compared to untreated controls and visually evaluated for injury. Plant response ratings, summarized in Table A, are based on a 0 to 100 scale where 0 is no effect and 100 is complete control.

[2] = system: corn (Zea mays); assay: Test A postemergence; details: 0 to 100 scale, 0 no effect, 100 complete control, approx. 10 days
Excerpt: as §1

[3] = system: giant foxtail (Setaria faberii); assay: Test A postemergence; details: 0 to 100 scale, 0 no effect, 100 complete control, approx. 10 days
Excerpt: as §1

[4] = system: large crabgrass (Digitaria sanguinalis); assay: Test A postemergence; details: 0 to 100 scale, 0 no effect, 100 complete control, approx. 10 days
Excerpt: as §1

[5] = system: morningglory (Ipomoea spp.); assay: Test A postemergence; details: 0 to 100 scale, 0 no effect, 100 complete control, approx. 10 days
Excerpt: as §1

[6] = system: pigweed (Amaranthus retroflexus); assay: Test A postemergence; details: 0 to 100 scale, 0 no effect, 100 complete control, approx. 10 days
Excerpt: as §1

[7] = system: velvetleaf (Abutilon theophrasti); assay: Test A postemergence; details: 0 to 100 scale, 0 no effect, 100 complete control, approx. 10 days
Excerpt: as §1

[8] = system: wheat (Triticum aestivum); assay: Test A postemergence; details: 0 to 100 scale, 0 no effect, 100 complete control, approx. 10 days
Excerpt: as §1

[9] = system: Italian ryegrass (Lolium multiflorum); assay: Test B postemergence; details: scale 0 to 100
Excerpt: (§2) Seeds of plant species selected from blackgrass (Alopecurus myosuroides), downy bromegrass (Bromus tectorum), green foxtail (Setaria viridis), Italian ryegrass (Lolium multiflorum), wheat (Triticum aestivum), wild oat (Avena fatua), galium (Galium aparine), bermudagrass (Cynodon dactylon), Surinam grass (Brachiaria decumbens), cocklebur (Xanthium strumarium), corn (Zea mays), large crabgrass (Digitaria sanguinalis), woolly cupgrass (Eriochloa villosa), giant foxtail (Setaria faberii), goosegrass (Eleusine indica), johnsongrass (Sorghum halepense), kochia (Kochia scoparia), lambsquarters (Chenopodium album), morningglory (Ipomoea coccinea), yellow nutsedge (Cyperus esculentus), pigweed (Amaranthus retroflexus), ragweed (Ambrosia elatior), soybean (Glycine max), velvetleaf (Abutilon theophrasti), barley (Hordeum vulgare), canarygrass (Phalaris minor), chickweed (Stellaria media), deadnettle (Lamium amplexicaule) and windgrass (Apera spica-venti) were planted in pots containing Redi-Earth® planting medium (Scotts Company, Marysville, Ohio, USA) comprising spaghnum peat moss, vermiculite, wetting agent and starter nutrients and treated postemergence with test compounds formulated in a non-phytotoxic solvent mixture which included a surfactant. Plants ranged in height from 2 to 18 cm (1- to 4-leaf stage).
(§3) Treated plants and controls were maintained in a greenhouse for 13 to 15 days, after which time all species were compared to controls and visually evaluated. Plant response ratings, summarized in Table B, are based on a scale of 0 to 100 where 0 is no effect and 100 is complete control. A dash (-) response means no test result.

[10] = system: barley (Hordeum vulgare); assay: Test B postemergence; details: scale 0 to 100
Excerpt: as §2, §3

[11] = system: blackgrass (Alopecurus myosuroides); assay: Test B postemergence; details: scale 0 to 100
Excerpt: as §2, §3

[12] = system: canarygrass (Phalaris minor); assay: Test B postemergence; details: scale 0 to 100
Excerpt: as §2, §3

[13] = system: galium (Galium aparine); assay: Test B postemergence; details: scale 0 to 100
Excerpt: as §2, §3

[14] = system: giant foxtail (Setaria faberii); assay: Test B postemergence; details: scale 0 to 100
Excerpt: as §2, §3

[15] = system: goosegrass (Eleusine indica); assay: Test B postemergence; details: scale 0 to 100
Excerpt: as §2, §3

[16] = system: green foxtail (Setaria viridis); assay: Test B postemergence; details: scale 0 to 100
Excerpt: as §2, §3

[17] = system: pigweed (Amaranthus retroflexus); assay: Test B postemergence; details: scale 0 to 100
Excerpt: as §2, §3

[18] = system: soybean (Glycine max); assay: Test B postemergence; details: scale 0 to 100
Excerpt: as §2, §3

[19] = system: velvetleaf (Abutilon theophrasti); assay: Test B postemergence; details: scale 0 to 100
Excerpt: as §2, §3

[20] = system: wild oat (Avena fatua); assay: Test B postemergence; details: scale 0 to 100
Excerpt: as §2, §3

[21] = system: windgrass (Apera spica-venti); assay: Test B postemergence; details: scale 0 to 100
Excerpt: as §2, §3

[22] = system: yellow nutsedge (Cyperus esculentus); assay: Test B postemergence; details: scale 0 to 100
Excerpt: as §2, §3

For `COCCn1c(-c2cc(F)cc(F)c2)c(Cl)nc(C(=O)C2=C(O)CCCC2=O)c1=O` [Compound 6, 5-chloro-6-(3,5-difluorophenyl)-3-[(2-hydroxy-6-oxo-1-cyclohexen-1-yl)carbonyl]-1-(2-methoxyethyl)-2(1H)-pyrazinone], the “Plant response rating, Barnyardgrass” value ([1]; 125 g ai/ha) was 90, the “Plant response rating, Barnyardgrass” value ([1]; 500 g ai/ha) was 100 and the “Plant response rating, Corn” value ([2]; 125 g ai/ha) was 0. The “Plant response rating, Corn” value ([2]; 500 g ai/ha) was 40, the “Plant response rating, Foxtail, Giant” value ([3]; 125 g ai/ha) was 50 and the “Plant response rating, Foxtail, Giant” value ([3]; 500 g ai/ha) was 90. The “Plant response rating, Crabgrass, Large” value ([4]; 125 g ai/ha) was 80, the “Plant response rating, Crabgrass, Large” value ([4]; 500 g ai/ha) was 100 and the “Plant response rating, Morningglory” value ([5]; 125 g ai/ha) was 90. The “Plant response rating, Morningglory” value ([5]; 500 g ai/ha) was 100, the “Plant response rating, Pigweed” value ([6]; 125 g ai/ha) was 70 and the “Plant response rating, Pigweed” value ([6]; 500 g ai/ha) was 100. For the same molecule, the “Plant response rating, Velvetleaf” value ([7]; 125 g ai/ha) was 100, the “Plant response rating, Velvetleaf” value ([7]; 500 g ai/ha) was 100 and the “Plant response rating, Wheat” value ([8]; 125 g ai/ha) was 0. For the same molecule, the “Plant response rating, Wheat” value ([8]; 500 g ai/ha) was 20, the “Plant response rating, Ryegrass, Italian” value ([9]; 31 g ai/ha) was 0 and the “Plant response rating, Ryegrass, Italian” value ([9]; 62 g ai/ha) was 5. For the same molecule, the “Plant response rating, Ryegrass, Italian” value ([9]; 125 g ai/ha) was 15, the “Plant response rating, Ryegrass, Italian” value ([9]; 250 g ai/ha) was 45 and the “Plant response rating, Barley” value ([10]; 31 g ai/ha) was 25. For the same molecule, the “Plant response rating, Barley” value ([10]; 62 g ai/ha) was 35, the “Plant response rating, Barley” value ([10]; 125 g ai/ha) was 50 and the “Plant response rating, Barley” value ([10]; 250 g ai/ha) was 70. For the same molecule, the “Plant response rating, Blackgrass” value ([11]; 31 g ai/ha) was 50, the “Plant response rating, Blackgrass” value ([11]; 62 g ai/ha) was 55 and the “Plant response rating, Blackgrass” value ([11]; 125 g ai/ha) was 60. For the same molecule, the “Plant response rating, Blackgrass” value ([11]; 250 g ai/ha) was 60, the “Plant response rating, Canarygrass” value ([12]; 31 g ai/ha) was 55 and the “Plant response rating, Canarygrass” value ([12]; 62 g ai/ha) was 55. The “Plant response rating, Canarygrass” value ([12]; 125 g ai/ha) was 70, the “Plant response rating, Canarygrass” value ([12]; 250 g ai/ha) was 90 and the “Plant response rating, Galium” value ([13]; 31 g ai/ha) was 40. The “Plant response rating, Galium” value ([13]; 62 g ai/ha) was 50, the “Plant response rating, Galium” value ([13]; 125 g ai/ha) was 60 and the “Plant response rating, Galium” value ([13]; 250 g ai/ha) was 65. The “Plant response rating, Foxtail, Giant” value ([14]; 31 g ai/ha) was 65, the “Plant response rating, Foxtail, Giant” value ([14]; 62 g ai/ha) was 65 and the “Plant response rating, Foxtail, Giant” value ([14]; 125 g ai/ha) was 80. For the same molecule, the “Plant response rating, Foxtail, Giant” value ([14]; 250 g ai/ha) was 95, the “Plant response rating, Goosegrass” value ([15]; 31 g ai/ha) was 75 and the “Plant response rating, Goosegrass” value ([15]; 62 g ai/ha) was 80. For the same molecule, the “Plant response rating, Goosegrass” value ([15]; 125 g ai/ha) was 95, the “Plant response rating, Goosegrass” value ([15]; 250 g ai/ha) was 98 and the “Plant response rating, Foxtail, Green” value ([16]; 31 g ai/ha) was 50. The “Plant response rating, Foxtail, Green” value ([16]; 62 g ai/ha) was 70, the “Plant response rating, Foxtail, Green” value ([16]; 125 g ai/ha) was 85 and the “Plant response rating, Foxtail, Green” value ([16]; 250 g ai/ha) was 98. The “Plant response rating, Pigweed” value ([17]; 31 g ai/ha) was 80, the “Plant response rating, Pigweed” value ([17]; 62 g ai/ha) was 95 and the “Plant response rating, Pigweed” value ([17]; 125 g ai/ha) was 98. The “Plant response rating, Pigweed” value ([17]; 250 g ai/ha) was 98, the “Plant response rating, Soybean” value ([18]; 31 g ai/ha) was 45 and the “Plant response rating, Soybean” value ([18]; 62 g ai/ha) was 65. For the same molecule, the “Plant response rating, Soybean” value ([18]; 125 g ai/ha) was 70, the “Plant response rating, Soybean” value ([18]; 250 g ai/ha) was 95 and the “Plant response rating, Velvetleaf” value ([19]; 31 g ai/ha) was 60. For the same molecule, the “Plant response rating, Velvetleaf” value ([19]; 62 g ai/ha) was 65, the “Plant response rating, Velvetleaf” value ([19]; 125 g ai/ha) was 80 and the “Plant response rating, Velvetleaf” value ([19]; 250 g ai/ha) was 80. For the same molecule, the “Plant response rating, Oat, Wild” value ([20]; 31 g ai/ha) was 10, the “Plant response rating, Oat, Wild” value ([20]; 62 g ai/ha) was 40 and the “Plant response rating, Oat, Wild” value ([20]; 125 g ai/ha) was 40. The “Plant response rating, Oat, Wild” value ([20]; 250 g ai/ha) was 90, the “Plant response rating, Windgrass” value ([21]; 31 g ai/ha) was 60 and the “Plant response rating, Windgrass” value ([21]; 62 g ai/ha) was 75. For the same molecule, the “Plant response rating, Windgrass” value ([21]; 125 g ai/ha) was 80, the “Plant response rating, Windgrass” value ([21]; 250 g ai/ha) was 80 and the “Plant response rating, Nutsedge, Yellow” value ([22]; 31 g ai/ha) was 40. The “Plant response rating, Nutsedge, Yellow” value ([22]; 62 g ai/ha) was 45, the “Plant response rating, Nutsedge, Yellow” value ([22]; 125 g ai/ha) was 80 and the “Plant response rating, Nutsedge, Yellow” value ([22]; 250 g ai/ha) was 80.
